From patent US9861616B2, “Methods for treating respiratory diseases and formulations therefor” (priority 2013, dated 2018)
≈ marks a conversion by molar mass, not a printed value.

How the values were obtained:
P. aeruginosa (PA) = experiment: MIC by microdilution, 36 clinical and laboratory strains with known efflux phenotype; assay type: cell-based
Protocol: (§1) MICs of 36 clinical and laboratory strains of PA with known efflux phenotype are measured by microdilution in cation-adjusted Muller-Hinton broth (CA-MHB) or in RPMI medium (commonly used in eukaryotic cell culture). Phe-Arg-β-naphthylamide (PaβN, 50 mg/L) and EGTA 5 mM are used to inhibit efflux pumps and alter OM integrity, respectively. P. aeruginosa strain ATCC PAO1 is used as reference. PA12 is a clinical strain overexpressing the 4 main efflux systems (MexAB, MexCD, MexEF, MexXY), PA403 is a laboratory strain deleted in the genes coding for the 4 efflux systems. A series of reference strains or of clinical isolates for which the expression of genes coding for efflux pumps is known is also used for MICs determinations. MICs are measured by microdilution in MH broth or in RPMI medium (used for eukaryotic cells culture) supplemented with 10% of fetal calf serum, or in MH broth supplemented by increasing amounts of serum. EGTA (5 mM) was used as a chelating agent (disrupting outer membrane integrity) and PaβN (50 mg/L) as an unspecific efflux inhibitor.

P. aeruginosa PA12 = experiment: MIC by microdilution with PaβN or EGTA, clinical isolate overexpressing efflux pumps; assay type: cell-based; details: Pseudomonas aeruginosa
Protocol: as §1

Compound: CC[C@H]1OC(=O)[C@H](C)[C@@H](O[C@H]2C[C@@](C)(OC)[C@@H](O)[C@H](C)O2)[C@H](C)[C@@H](O[C@@H]2O[C@H](C)C[C@H](N(C)C)[C@H]2O)[C@](C)(O)C[C@@H](C)CN(C)[C@H](C)[C@@H](O)[C@]1(C)O [AZM, azithromycin]
- MIC (P. aeruginosa (PA); strain 1, efflux AB+, MHB): 128 µg/mL (≈ 171 µM)
- MIC (P. aeruginosa (PA); strain 1, efflux AB+, RPMI): 4 µg/mL (≈ 5.34 µM)
- MIC (P. aeruginosa (PA); strain 2, efflux CD+, MHB): 512 µg/mL (≈ 684 µM)
- MIC (P. aeruginosa (PA); strain 2, efflux CD+, RPMI): 4 µg/mL (≈ 5.34 µM)
- MIC (P. aeruginosa (PA); strain 3, efflux EF+, MHB): 64 µg/mL (≈ 85.4 µM)
- MIC (P. aeruginosa (PA); strain 3, efflux EF+, RPMI): 2 µg/mL (≈ 2.67 µM)
- MIC (P. aeruginosa (PA); strain 4, efflux XY+, MHB): 256 µg/mL (≈ 342 µM)
- MIC (P. aeruginosa (PA); strain 4, efflux XY+, RPMI): 2 µg/mL (≈ 2.67 µM)
- MIC (P. aeruginosa (PA); strain 11, efflux AB + CD+, MHB): 128 µg/mL
- MIC (P. aeruginosa (PA); strain 11, efflux AB + CD+, RPMI): 2 µg/mL
- MIC (P. aeruginosa (PA); strain 12, efflux AB + CD + EF + XY+, MHB): 256 µg/mL
- MIC (P. aeruginosa (PA); strain 12, efflux AB + CD + EF + XY+, RPMI): 2 µg/mL
- MIC (P. aeruginosa (PA); strain 16, efflux AB + XY+, MHB): 256 µg/mL
- MIC (P. aeruginosa (PA); strain 16, efflux AB + XY+, RPMI): 4 µg/mL
- MIC (P. aeruginosa (PA); strain 21, efflux AB+, MHB): 256 µg/mL (≈ 342 µM)
- MIC (P. aeruginosa (PA); strain 21, efflux AB+, RPMI): 2 µg/mL (≈ 2.67 µM)
- MIC (P. aeruginosa (PA); strain 22, efflux XY+, MHB): 256 µg/mL (≈ 342 µM)
- MIC (P. aeruginosa (PA); strain 22, efflux XY+, RPMI): 2 µg/mL (≈ 2.67 µM)
- MIC (P. aeruginosa (PA); strain 40, efflux EF+, MHB): 256 µg/mL (≈ 342 µM)
- MIC (P. aeruginosa (PA); strain 40, efflux EF+, RPMI): 2 µg/mL (≈ 2.67 µM)
- MIC (P. aeruginosa (PA); strain 41, efflux CD+, MHB): 256 µg/mL (≈ 342 µM)
- MIC (P. aeruginosa (PA); strain 41, efflux CD+, RPMI): 2 µg/mL (≈ 2.67 µM)
- MIC (P. aeruginosa (PA); strain 48, efflux CD + EF + XY+, MHB): 256 µg/mL
- MIC (P. aeruginosa (PA); strain 48, efflux CD + EF + XY+, RPMI): 2 µg/mL
- MIC (P. aeruginosa (PA); strain 49, efflux CD + EF + XY+, MHB): 256 µg/mL
- MIC (P. aeruginosa (PA); strain 49, efflux CD + EF + XY+, RPMI): 2 µg/mL
- MIC (P. aeruginosa (PA); strain 63, efflux AB + EF + XY+, MHB): 256 µg/mL
- MIC (P. aeruginosa (PA); strain 63, efflux AB + EF + XY+, RPMI): 2 µg/mL
- MIC (P. aeruginosa (PA); strain 68, efflux AB + XY+, MHB): 256 µg/mL
- MIC (P. aeruginosa (PA); strain 68, efflux AB + XY+, RPMI): 2 µg/mL
- MIC (P. aeruginosa (PA); strain 133, efflux EF + XY+, MHB): 256 µg/mL
- MIC (P. aeruginosa (PA); strain 133, efflux EF + XY+, RPMI): 4 µg/mL
- MIC (P. aeruginosa (PA); strain 156, efflux EF + XY+, MHB): 512 µg/mL
- MIC (P. aeruginosa (PA); strain 156, efflux EF + XY+, RPMI): 4 µg/mL
- MIC (P. aeruginosa (PA); strain 168B, efflux CD + XY+, MHB): 512 µg/mL
- MIC (P. aeruginosa (PA); strain 168B, efflux CD + XY+, RPMI): 4 µg/mL
- MIC (P. aeruginosa (PA); strain 207, efflux AB + EF + XY+, MHB): 512 µg/mL
- MIC (P. aeruginosa (PA); strain 207, efflux AB + EF + XY+, RPMI): 4 µg/mL
- MIC (P. aeruginosa (PA); strain 266B, efflux AB + CD+, MHB): 256 µg/mL
- MIC (P. aeruginosa (PA); strain 266B, efflux AB + CD+, RPMI): 2 µg/mL
- MIC (P. aeruginosa (PA); strain 333A, efflux AB + EF+, MHB): 256 µg/mL
- MIC (P. aeruginosa (PA); strain 333A, efflux AB + EF+, RPMI): 2 µg/mL
- MIC (P. aeruginosa (PA); strain 335, efflux AB + EF+, MHB): 512 µg/mL
- MIC (P. aeruginosa (PA); strain 335, efflux AB + EF+, RPMI): 4 µg/mL
- MIC (P. aeruginosa (PA); strain 391, efflux EF−, MHB): 128 µg/mL (≈ 171 µM)
- MIC (P. aeruginosa (PA); strain 391, efflux EF−, RPMI): 2 µg/mL (≈ 2.67 µM)
- MIC (P. aeruginosa (PA); strain 392, efflux CD−, MHB): 128 µg/mL (≈ 171 µM)
- MIC (P. aeruginosa (PA); strain 392, efflux CD−, RPMI): 2 µg/mL (≈ 2.67 µM)
- MIC (P. aeruginosa (PA); strain 394, efflux XY−, MHB): 256 µg/mL (≈ 342 µM)
- MIC (P. aeruginosa (PA); strain 394, efflux XY−, RPMI): 4 µg/mL (≈ 5.34 µM)
- MIC (P. aeruginosa (PA); strain 395, efflux HI−, MHB): 128 µg/mL (≈ 171 µM)
- MIC (P. aeruginosa (PA); strain 395, efflux HI−, RPMI): 2 µg/mL (≈ 2.67 µM)
- MIC (P. aeruginosa (PA); strain 396, ompH−, MHB): 64 µg/mL (≈ 85.4 µM)
- MIC (P. aeruginosa (PA); strain 396, ompH−, RPMI): 2 µg/mL (≈ 2.67 µM)
- MIC (P. aeruginosa (PA); strain 397, efflux AB−, MHB): 8 µg/mL (≈ 10.7 µM)
- MIC (P. aeruginosa (PA); strain 397, efflux AB−, RPMI): 1 µg/mL (≈ 1.34 µM)
- MIC (P. aeruginosa (PA); strain 398, efflux CD−, MHB): 16 µg/mL (≈ 21.4 µM)
- MIC (P. aeruginosa (PA); strain 398, efflux CD−, RPMI): 1 µg/mL (≈ 1.34 µM)
- MIC (P. aeruginosa (PA); strain 399, efflux AB − EF−, MHB): 16 µg/mL (≈ 21.4 µM)
- MIC (P. aeruginosa (PA); strain 399, efflux AB − EF−, RPMI): 2 µg/mL (≈ 2.67 µM)
- MIC (P. aeruginosa (PA); strain 400, efflux XY−, MHB): 8 µg/mL (≈ 10.7 µM)
- MIC (P. aeruginosa (PA); strain 400, efflux XY−, RPMI): 2 µg/mL (≈ 2.67 µM)
- MIC (P. aeruginosa (PA); strain 401, ompH−, MHB): 8 µg/mL (≈ 10.7 µM)
- MIC (P. aeruginosa (PA); strain 401, ompH−, RPMI): 2 µg/mL (≈ 2.67 µM)
- MIC (P. aeruginosa (PA); strain 403, efflux AB − CD − EF − XY−, MHB): 8 µg/mL (≈ 10.7 µM)
- MIC (P. aeruginosa (PA); strain 403, efflux AB − CD − EF − XY−, RPMI): 2 µg/mL (≈ 2.67 µM)
- MIC (P. aeruginosa (PA); strain 405, efflux AB − CD − EF − XY−, MHB): 8 µg/mL (≈ 10.7 µM)
- MIC (P. aeruginosa (PA); strain 405, efflux AB − CD − EF − XY−, RPMI): 2 µg/mL (≈ 2.67 µM)
- MIC (P. aeruginosa (PA); strain 434, efflux AB + CD + XY+, MHB): 512 µg/mL
- MIC (P. aeruginosa (PA); strain 434, efflux AB + CD + XY+, RPMI): 4 µg/mL
- MIC (P. aeruginosa (PA); strain PAO1, REFERENCE, MHB): 256 µg/mL (≈ 342 µM)
- MIC (P. aeruginosa (PA); strain PAO1, REFERENCE, RPMI): 4 µg/mL (≈ 5.34 µM)
- MIC (P. aeruginosa PA12; PA12, PA12, CA-MHB, EGTA 5 mM): 256 µg/mL (≈ 342 µM)
- MIC (P. aeruginosa PA12; PA12, PA12, CA-MHB, PaβN 50 mg/L): 2 µg/mL (≈ 2.67 µM)
- MIC (P. aeruginosa PA12; PA12, PA12, CA-MHB, control conditions (CT)): 256 µg/mL (≈ 342 µM)
- MIC (P. aeruginosa PA12; PA12, PA12, RPMI, EGTA 5 mM): 0.5 µg/mL (≈ 0.668 µM)
- MIC (P. aeruginosa PA12; PA12, PA12, RPMI, PaβN 50 mg/L): 2 µg/mL (≈ 2.67 µM)
- MIC (P. aeruginosa PA12; PA12, PA12, RPMI, control conditions (CT)): 2 µg/mL (≈ 2.67 µM)
